Data as given in patent US20090176714A1, “METHOD OF REDUCING THE EFFECTS OF ABeta AND COMPOSITIONS THEREFORE” (priority 2004, published 2009).

System: hippocampal slice cultures
Assay: Aβ-induced cell death (EthD-1/calcein AM, % Death) in organotypic hippocampal slice cultures
Assay type: cell-based, mouse
Experimental: Pups from C57B6/SJL mice were anaesthetized and decapitated at postnatal day 15. The brain was removed and placed in ice-cold dissecting medium (50% Minimum Essential Medium (Invitrogen, Carlsbad, Calif.), 50% Hank's Balanced Salt Solution (Invitrogen), 25 mM HEPES, and 36 mM glucose). Both hippocampi were dissected under a dissecting microscope and cut at 400 μm on a McIlwain tissue chopper. Slices were separated and placed on filter inserts with a 30 mm diameter and a 0.4 μm filter pore size (Millipore, Billerica, Mass.) held in 6-well culture plates. For the first 3 days, slices were kept in Neurobasal media with B-27 supplement, 1 mM glutamine, and 1% penicillin/streptomycin (Invitrogen). Subsequently, the media was changed every 3 days using media without antibiotics. Organotypic cultures were maintained in a humidified incubator at 37° C. in 5% O2 and 5% CO2 for 14 to 21 days.
Cell death and viability was determined on live slices using the fluorescent probes from Molecular Probes' Live/Dead Kit. After a 40 minute incubation in calcein AM (1:400) and ethidium homodimer (1:1000) in phosphate buffered saline, slices were visualized at 200× magnification with an inverted Nikon Diaphot 200 microscope using the Bio-Rad MRC-1024 Laser Scanning Confocal system (Hercules, Calif.). Random images of the neuronal fields were captured at the emission spectrum of each probe, and Scion Image software (Frederick, Md.) was used to quantify the number of live and dead cells. At least three areas including a neuronal field were imaged and used to determine the percent death for each slice. The percent death was calculated as the number of EthD-1 positive cells divided by the total number of EthD-1 and calcein AM positive cells.
β-amyloid1-42 and reverse Aβ (Aβ42-1) were obtained from BACHEM (Torrance, Calif.). These polypeptides were dissolved in 0.1% NH3OH at 222 μM. For treatments, Aβ was aggregated at 50 μM in Neurobasal media with B-27 supplement and 1 mM glutamine at 37° C. for 24 hours. Then, the slice culture media was removed, and the slices were treated with 1 mL of 25 μM or 50 μM Aβ, reverse Aβ, or vehicle for 24 hours. Human TTR (Calbiochem) or IGF-2 (Peprotech, Rocky Hill, N.J.) was added to slices together with the Aβ treatment at final concentrations of 3 μM (TTR) or 500 nM (IGF-2). sAPPα was prepared as described previously (Mattson et al., Neuron, 10:243-254 (1993)).
Unless otherwise stated, all sAPPα treatments were performed at 1 nM 48 hours prior to the addition of Aβ. Antibodies against TTR (C-20) or IGF-2 (F-20; 4 μg/mL; Santa Cruz) or sAPPα (6E10; 10 μg/mL; Chemicon) were added to slices together with the sAPPα treatment. Goat IgG (4 μg/mL; Santa Cruz) or mouse IgG1 (10 μg/mL; Chemicon) was added as a control. The 10 amino acid fragment of the carboxyl-terminal region of sAPPα (592-601 of APP695; SEVKMDAEFR; SEQ ID NO:1; Sigma) was added according to the same protocol for sAPPα.
SiRNA's were created based on the mouse mRNA sequences using the Ambion Silencer siRNA Construction Kit (Austin, Tex.). Several siRNA's were created by in vitro transcription for each silenced gene. Transfection was performed for 4 hours at 37° C. prior to vehicle or sAPPα treatment using 25 nM siRNA combined with the polyamines in the Ambion siPORT Amine Transfection Agent. Transfections were performed in Neurobasal media with 1 mM glutamine (Invitrogen). The successful mRNA target sequences are as follows, TTR: 5′-[…]-3′ (SEQ ID NO:16) and 5′-[…]-3′ (SEQ ID NO:17); IGF-2: 5′-AA-GGGGATAGAGATGTGAGAG-3′ (SEQ ID NO:18) and 5′-AAATTATGTGGT-AATTCTGCA-3′ (SEQ ID NO:19); IGF-1R: 5′-[…]-3′ (SEQ ID NO:20) and 5′-[…]-3′ (SEQ ID NO:21).
β-amyloid1-42 and reverse Aβ (Aβ42-1) were obtained from BACHEM (Torrance, Calif.). These peptides were dissolved in 0.1% NH3OH at 222 μM. For treatments, Aβ was aggregated at 50 μM in Neurobasal media with B-27 supplement and 1 mM glutamine at 37° C. for 24 hours. […]

[1] = 1 nM 48 hours prior to 25 μM Aβ (24 hours), FIG. 7

## DAEF [peptide of 4 residues within the 10 residue peptide (residues 597-600)]
[1]
  Protection against Aβ-induced death (% Death): sufficient to protect
1 nM 48 h prior to 25 μM Aβ (24 h), FIG. 12A
  Protection against Aβ-induced death (% Death): protects against the Aβ-induced toxicity
1 nM 48 h prior to 25 μM Aβ (24 h), FIG. 12A, listed as tetramer
  Protection against Aβ-induced death (% Death): completely protected
48 h prior to 25 μM Aβ (24 h), FIG. 12B, 1 nM, final concentration of 1 mM
  Protection against Aβ-induced death (% Death): protects against the Aβ-induced toxicity
48 h prior to 25 μM Aβ (24 h), FIG. 12B, 1 nM, final concentration of 1 mM, listed as tetramer
  Protection against Aβ-induced death (% Death): completely protected

## SEVKMDAEFR
[1]
  Protection against Aβ-induced death (% Death): completely protected
1 nM added 48 hours prior to 25 μM or 50 μM Aβ (24 hours), FIG. 4A
  Protection against Aβ-induced death (% Death, EthD-1 positive cells): mimics the protective effect of sAPPα

## β-amyloid1-42 [Aβ]
25 μM Aβ, 24 hours
  Percent death compared to treatment with vehicle: dramatic and significant increase
25 μM or 50 μM Aβ, 24 hours, compared to reverse Aβ
  Neurons that lost membrane integrity (EthD-1 positive) / percent death: dramatic increase
